Experiment: Inhibition of H+/K+ ATPase

IC50	Compound
7.5 µM	CCOC(=O)c1cnc(C[S+]([O-])c2nc3ccccc3[nH]2)nc1N(C)C (stereo unspecified)
5.8 µM	COc1ccc2[nH]c([S+]([O-])Cc3ncc(C)c(OC)c3C)nc2c1 (stereo unspecified) [OMEPRAZOLE]

Experiment: Dissociation constant, pKa of the compound
Type: physicochemical

Compound	pKa
Cc1c(OCC(F)(F)F)ccnc1C[S+]([O-])c1nc2ccccc2[nH]1 (stereo unspecified) [LANSOPRAZOLE]	4
COCCCOc1ccnc(C[S+]([O-])c2nc3ccccc3[nH]2)c1C (stereo unspecified) [RABEPRAZOLE]	5
COc1ccnc(C[S+]([O-])c2nc3ccc(OC(F)F)cc3[nH]2)c1OC (stereo unspecified) [PANTOPRAZOLE]	4
COc1ccc2nc([S@@+]([O-])Cc3ncc(C)c(OC)c3C)[nH]c2c1 [ESOMEPRAZOLE]	4

From ChEMBL document CHEMBL1140600, “Recent advances in proton pump inhibitors and management of acid-peptic disorders” (Bioorg Med Chem, 2007)
